Earlier results as cited in patent US11654140B2, “Treatment of ocular inflammatory diseases using laquinimod” (Active Biotech AB, priority 2012, dated 2023).

Tested on: patients with a history of uveitis
Settings: patients with a history of uveitis (Sergott, 2011); cited from earlier work

SMILES: CCCCCCCCc1ccc(CCC(N)(CO)CO)cc1 [fingolimod]
- risk of macular edema: known to pose a risk of macular edema
